pEC50: −log10 of the molar value. Structures can show the parent of a compound that is named as a salt.
Experiments:
GABA receptor = assay: In vitro activation of GABA binding ([3H]GABA, Triton X-100 treated membrane protein); conditions: average of one or more tests, read-out: SC50 GABA (nanomolar concentration producing a 50% increase in binding)
Method: (§1) The novel compounds of this invention were examined for their in vitro ability to activate GABA and benzodiazepine (BZ) binding. To measure the effect of a compound on GABA binding, Triton X-100 (octylphenoxy polyethoxyethanol, Rohm and Haas Co.) treated membrane protein was incubated in the presence of the compound and [^3 H]GABA as detailed by Horng and Wong, J. Neurochemistry, 32 (5), 1379 (1979). To examine BZ binding, H-flunirazepam and the compounds were incubated with native membrane protein as reported by Wong, et al, Brain Res. Bull., 5 (Suppl. 2), 853 (1980). The results in Table 1 are the nanomolar concentrations of compounds (by Example No.) which produced a 50 percent increase (SC50) in GABA or BZ binding. Each result is the average of one or more tests.

benzodiazepine receptor = assay: In vitro activation of benzodiazepine (BZ) binding (flunirazepam, native membrane protein); conditions: average of one or more tests, read-out: SC50 BZ (nanomolar concentration producing a 50% increase in binding)
Method: as §1

[1] = Metrazole Induced Convulsion Inhibition Assay; type: in vivo, Cox standard strain albino male mice; conditions: Mus musculus
Method: (§2) In this assay, a compound to be tested was suspended in acacia (5%) and administered by gavage to each of three Cox standard strain albino male mice (18-24 grams) at the dose level being investigated. One hour after the oral administration, a water solution of metrazole (pentylenetetrazole) was administered by the intraperitoneal route to each mouse at a dose of 110 mg./kg. […] A score of 0 was assigned to a mouse not showing any signs of convulsant activity; a score of 1 was given to mice developing clonic convulsions; a score of 2 was given to mice showing flexor tonic convulsions; a score of 3 was given to mice showing extensor tonic convulsions; and a score of 4 was given to mice that died within the one hour. The scores of the three mice were totalled for each compound and dose level. The scores can range from 0 to 12; a score of 6 or less was interpreted as indicative of an active compound at that dose level. Values reported in Table 2 below are the minimum oral dose levels (mg./kg.) where activity as defined above was observed.

[2] = Electroshock Induced Convulsion Inhibition Assay; type: in vivo, Cox standard strain albino male mice; conditions: Mus musculus
Method: as §2
The drug administration and test conditions used in this assay were similar to those used in the metrazole induced convulsion inhibition assay above except that a 0.1 second, 50 milliampere electroshock through corneal electrodes induced the convulsion instead of metrazole. The animals were examined and evaluated immediately after the electroshock and were scored as before. The results in Table 2 are expressed as the lowest dose of each compound tested which was active as previously defined. For comparison, 18 milliamperes was usually sufficient to produce extensor tonic convulsions in about half of the control animals; at 50 milliamperes, almost all control animals died. Diazepam was active at about 1 mg./kg.

[3] = Appetite Suppression Assay; type: in vivo, Cox standard strain albino male mice; conditions: Mus musculus
Method: In this test, groups of three Cox standard strain albino male mice were weighed (18-24 grams) and then fasted overnight (16-18 hours). The mice were reweighed and then given the test compound in a suspension of acacia (5%) by gavage. Thirty minutes after oral administration, the mice were allowed to eat freely for one hour. After the eating period, the mice were weighed once more. The percent of weight gained (from the time the mice were given the test compound to after the feeding period) compared to weight lost during the fast period was calculated. The non-drug treated control animals gained back 35-55% of the weight lost on fasting. Any compound at the dose level tested which produced a weight gain of less than 10% was considered to be active. The results in Table 2 report the lowest dose level in which there was activity for each compound tested. Dextroamphetamine sulfate is active in this system at about 2.5 mg./kg.

[4] = Mouse Writhing Inhibition Assay; type: in vivo, Cox standard strain albino male mice
Method: Writhing, which is characterized by contraction of the abdominal musculature, extension of the hindlegs, and rotation of the trunk, was induced in Cox standard strain albino male mice. The mice, weighing 18-24 grams, were fasted overnight and given the test compound by gavage in an acacia suspension (5%) 60 minutes before writhing was induced by the intraperitoneal administration of 55 mg./kg. of acetic acid (0.55 percent). Each treatment group consisted of 3 mice. The total number of writhes for the treatment group was determined during a 5-minute observation starting 5 minutes after acetic acid administration.

[5] = oral gavage, 1 h before metrazole 110 mg./kg. i.p., active = total score of 6 or less (3 mice, range 0-12), read-out: Minimum active oral dose, Metrazole
[6] = oral, 0.1 second, 50 milliampere corneal electroshock, active = total score of 6 or less, read-out: Minimum active oral dose, Electro-Shock
[7] = oral gavage 30 min before feeding, active = weight gain of less than 10% of weight lost on fasting, read-out: Minimum active oral dose, Appetite Suppression
[8] = oral gavage 60 min before acetic acid 55 mg./kg. i.p., active = less than ten writhes, read-out: Minimum active oral dose, Mouse Writhing

Compound | pEC50 (GABA receptor) | pEC50 (benzodiazepine receptor) | minimal effective dose [1, 5] | minimal effective dose [2, 6] | minimal effective dose [3, 7] | minimal effective dose [4, 8] | other results
Cc1ccc(-c2nnc(N3CCC(O)CC3)nc2-c2ccc(C)cc2)cc1 [Example 7, 1-[5,6-bis(4-methylphenyl)-1,2,4-triazin-3-yl]-4-piperidinol] | 6.05 | 6.15 | 3.1 mg/kg | < 25 mg/kg | 3.1 mg/kg | 3.1 mg/kg | 
CCOC1CCN(c2nnc(-c3ccc(C)cc3)c(-c3ccc(C)cc3)n2)CC1 [Example 27, 3-(4-ethoxy-1-piperidinyl)-5,6-bis(4-methylphenyl)-1,2,4-triazine] | 8.00 | 7.68 |  |  |  |  | 
Cc1ccccc1-c1nnc(N2CCC(O)CC2)nc1-c1ccccc1C [Example 9, 1-[5,6-bis(2-methylphenyl)-1,2,4-triazin-3-yl]-4-piperidinol] | < 5.00 | < 5.00 |  |  |  |  | 
Cc1ccc(-c2nnc(N3CCC(OC(=O)Oc4ccccc4)CC3)nc2-c2ccc(C)cc2)cc1 [Example 28, carbonic acid, 1-[5,6-bis(4-methylphenyl)-1,2,4-triazin-3-yl]-4-piperidinyl phenyl ester] | 6.80 | 6.19 | > 200 mg/kg | > 200 mg/kg | > 200 mg/kg | > 200 mg/kg | 
CC(=O)OC1CCN(c2nnc(-c3ccc(Cl)cc3)c(-c3ccc(Cl)cc3)n2)CC1 [Example 13, 1-[5,6-bis[4-chlorophenyl]-1,2,4-triazin-3-yl]-4-piperidinol, acetate (ester)] | 7.82 | 7.92 | 50 mg/kg | > 50 mg/kg | > 50 mg/kg | > 50 mg/kg | 
Cc1ccc(-c2nnc(N3CCC(OC(=O)c4ccccc4)CC3)nc2-c2ccc(C)cc2)cc1 [Example 17, 1-[5,6-bis(4-methylphenyl)-1,2,4-triazin-3-yl]-4-piperidinol, benzoate (ester)] | 6.30 | 6.00 | > 200 mg/kg | > 200 mg/kg | > 200 mg/kg | > 200 mg/kg | 
Cc1ccc(-c2nnc(N3CCC(=O)CC3)nc2-c2ccc(C)cc2)cc1 [Example 39, 1-[5,6-bis(4-methylphenyl)-1,2,4-triazin-3-yl]-4-piperidinone] | 6.70 | 6.37 | 50 mg/kg | 50 mg/kg | 12.5 mg/kg | 50 mg/kg | 
Cc1ccc(-c2nnc(N3CCC(OS(C)(=O)=O)CC3)nc2-c2ccc(C)cc2)cc1 [Example 32, 1-[5,6-bis(4-methylphenyl)-1,2,4-triazin-3-yl]-4-piperidinol, methane sulfonate (ester)] | 7.17 | 8.22 | > 6.25 mg/kg | > 6.25 mg/kg | 0.4 mg/kg | 0.4 mg/kg | 
CCc1ccc(-c2nnc(N3CCC(O)CC3)nc2-c2ccc(CC)cc2)cc1 [Example 8, 1-[5,6-bis(4-ethylphenyl)-1,2,4-triazin-3-yl]-4-piperidinol] | < 5.00 | 5.46 |  |  |  |  | 
Cc1cccc(-c2nnc(N3CCC(O)CC3)nc2-c2cccc(C)c2)c1 [Example 10, 1-[5,6-bis(3-methylphenyl)-1,2,4-triazin-3-yl]-4-piperidinol] |  | < 5.00 |  |  |  |  | 
CNC(=O)OC1CCN(c2nnc(-c3ccc(C)cc3)c(-c3ccc(C)cc3)n2)CC1 [Example 30, 1-[5,6-bis(4-methylphenyl)-1,2,4-triazin-3-yl]-4-piperidinol, N-methyl carbamate (ester)] | 7.00 | 7.62 |  |  |  |  | 
C[C@H](N)Cc1ccccc1 [Dextroamphetamine sulfate, reference compound] |  |  |  |  |  |  | minimal effective dose ([3]; po, read-out: dose showing activity, appetite suppression (reference)): ~2.5 mg/kg
CC(=O)Oc1ccccc1C(=O)O [Aspirin, acetyl salicylic acid, reference compound] |  |  |  |  |  |  | minimal effective dose ([4]; po, read-out: dose showing activity, mouse writhing (reference)): 200 mg/kg
Cc1ccc(-c2nnc(N3CCOCC3)nc2-c2ccc(C)cc2)cc1 [Example 22, 3-morpholino-5,6-bis(4-methylphenyl)-1,2,4-triazine] | 6.06 | 5.94 |  |  |  |  | 
Cc1ccc(-c2nnc(N3CCC(O)C3)nc2-c2ccc(C)cc2)cc1 (centres unmarked) [Example 18, 1-[5,6-bis(4-methylphenyl)-1,2,4-triazin-3-yl]-3-pyrrolidinol] |  |  | > 200 mg/kg | 200 mg/kg | 12.5 mg/kg | 200 mg/kg | 
Cc1ccc(-c2nnc(N3CCC(OC(=O)N(C)C)CC3)nc2-c2ccc(C)cc2)cc1 [Example 31] | 9.00 | 8.52 |  |  |  |  | 
OC1CCN(c2nnc(-c3ccc(Cl)cc3)c(-c3ccc(Cl)cc3)n2)CC1 [Example 11, 1-[5,6-bis(4-chlorophenyl)-1,2,4-triazin-3-yl]-4-piperidinol] |  |  | 12.5 mg/kg | > 25 mg/kg | 25 mg/kg | > 25 mg/kg | 
Cc1ccc(-c2nnc(N3CCC(=NO)CC3)nc2-c2ccc(C)cc2)cc1 [Example 40, 1-[5,6-bis(4-methylphenyl)-1,2,4-triazin-3-yl]-4-piperidinone, oxime] | 5.89 | 5.80 |  |  |  |  | 
CC(=O)OC1CCN(c2nnc(-c3ccc(C)cc3)c(-c3ccc(C)cc3)n2)C1 (centres unmarked) [Example 19, 1-[5,6-bis(4-methylphenyl)-1,2,4-triazin-3-yl]-3-pyrrolidinol, acetate (ester)] | 7.37 | 7.22 |  |  |  |  | 
Cc1ccc(-c2nnc(N3CCC(CO)CC3)nc2-c2ccc(C)cc2)cc1 [Example 37, 1-[5,6-bis(4-methylphenyl)-1,2,4-triazin-3-yl]-4-piperidinemethanol] | 6.80 | 6.28 |  |  |  |  | 
Cc1ccc(-c2nnc(N3CCC(OC(=O)C(C)(C)C)CC3)nc2-c2ccc(C)cc2)cc1 [Example 16, 1-[5,6-bis(4-methylphenyl)-1,2,4-triazin-3-yl]-4-piperidinol, pivaloate (ester)] | 6.96 | 7.85 |  |  |  |  | 
Cc1ccc(-c2nnc(N3CCC(C)CC3)nc2-c2ccc(C)cc2)cc1 [Example 25, 5,6-bis(4-methylphenyl)-3-(4-methyl-1-piperidinyl)-1,2,4-triazine] |  |  | > 200 mg/kg | > 200 mg/kg | 50 mg/kg | > 200 mg/kg | 
Cc1ccc(-c2nnc(N3CCC(C(N)=O)CC3)nc2-c2ccc(C)cc2)cc1 [Example 36, 1-[5,6-bis(4-methylphenyl)-1,2,4-triazin-3-yl]-4-piperidinecarboxamide] | 6.10 | 5.07 |  |  |  |  | 
CN1C(=O)CN=C(c2ccccc2)c2cc(Cl)ccc21 [Diazepam, reference compound] |  |  |  |  |  |  | minimal effective dose ([1]; po, read-out: dose showing activity, metrazole test (reference)): ~1 mg/kg; minimal effective dose ([2]; po, read-out: dose showing activity, electroshock test (reference)): ~1 mg/kg
Cc1ccc(-c2nnc(N3CCC(OC=O)CC3)nc2-c2ccc(C)cc2)cc1 [Example 34, 1-[5,6-bis(4-methylphenyl)-1,2,4-triazin-3-yl]-4-piperidinol, formate (ester)] | 7.89 | 8.00 |  |  |  |  | 

Source: patent US4585861A, “1,2,4-triazine derivatives” (Eli Lilly and Company, priority 1985, dated 1986)
